Tests used:
[1] = tested on: SNP cells; assay: Reactive oxygen species assay (Muse Oxidative Stress kit); type: cell-based, canine; conditions: 8 μg/mL, 4 h after PDT
Procedure: SNP cells were seeded at a density of 5 × 10^4 cells/well in 35-mm petri dishes containing 2 mL culture medium. Following 24 h of incubation, the cells were divided into the following groups: control (no treatment); laser (irradiated with a light dose of 15 J/cm^2); G-Ce6 (treated with 8 μg/mL G-Ce6); and PDT (treated with 8 μg/mL G-Ce6, and then irradiated with a light dose of 1, 5, or 15 J/cm^2).
Reactive oxygen species (ROS) generation was assessed 4 h after laser irradiation using the Muse Oxidative Stress kit (EMD Millipore Co.), according to the manufacturer’s protocols; this kit determines the percentage of cells that are negative (healthy cells) and positive for ROS (cells containing ROS).
Single-cell suspensions were then loaded onto the Muse Cell Analyzer (EMD Millipore Co.).

[2] = tested on: SNP tumors; assay: Intratumoral localization in SNP tumors; type: in vivo, NOD/ShiJic-scidJcl mice; conditions: 10 mg/kg i.v.
Procedure: Six-week-old female NOD/ShiJic-scidJcl mice (CLEA Japan, Tokyo, Japan) were maintained in isolators under specific pathogen-free conditions. All SCID mice were housed and handled under clean conditions using a Jic rack (Jic Co., Kanagawa, Japan), sterilized water, cages, beddings, and food (CL-2; CLEA Japan, Tokyo, Japan). Food and water were given ad libitum. SNP cells were inoculated subcutaneously in the shaved lower dorsum of mice at a density of 1 × 10^6 cells in 0.1 mL phosphate buffered salts (Nacalai Tesque Inc., Kyoto, Japan) per mouse using a 26-gauge syringe. The treatments were initiated when the average tumor volume reached about 100 mm^3 in tumor model. The use of animals and the procedures employed in this study were approved by the Animal Research Committee of Tottori University (project number: 15-T-48).
To determine the intratumoral localization of G-Ce6, tumors were excised either 5 min or 3 h after G-Ce6 (10 mg/kg, i.v.) administration. Samples were immediately mounted in Tissue-Tek® O.C.T. compound (Sakura® Finetek., Tokyo, Japan) and snap-frozen in dry ice with acetone. Cryostat cross sections (10-μm slices) were taken from the center of each tumor. Each section was examined using the all-in-one fluorescence microscope with a filter (excitation, 405 nm; emission, 640 nm).

Structure (SMILES): CCC1=C(C)c2cc3[nH]c(cc4nc(c(CC(=O)OC)c5[nH]c(cc1n2)c(C)c5C(=O)OC)[C@@H](CCC(=O)OC)[C@@H]4C)c(C)c3C(C)OCCCS[C@@H]1O[C@H](CO)[C@@H](O)[C@H](O)[C@H]1O (stereo partly drawn) [G-Ce6, Methyl (7S,8S)-18-ethyl-5-(2-methoxy-2-oxoethyl)-7-(3-methoxy-3-oxopropyl)-2,8,12,17-tetramethyl-13-(1-(3-(((2S,3R,4S,5S,6R)-3,4,5-trihydroxy-6-(hydroxymethyl)tetrahydro-2H-pyran-2-yl)thio)propoxy)ethyl)-7H,8H-porphyrin-3-carboxylate]
- Percentage of ROS (+) cells compared with control group ([1]; 5 J/cm^2, p < 0.01): significantly higher
- Percentage of ROS (+) cells ([1]; 15 J/cm^2): remarkably decreased
- Intratumoral localization of fluorescence ([2]; 5 min after administration): within the tumor blood vessel
- Intratumoral localization of fluorescence ([2]; 3 h post administration): in both tumor interstitial tissue and tumor cells
